The source of these data is patent US9521847B2, “Synergistic weed control from applications of pyridine carboxylic acid herbicides and synthetic auxin herbicides and/or auxin transport inhibitors” (Dow AgroSciences LLC, priority 2014, dated 2016).

One data set relates to maize (ZEAMX). Briefly: Greenhouse postemergence trial, crop phytotoxicity (% visual injury).
Data set [1] relates to grain sorghum (Sorghum vulgare, SORVU). Put plainly: Greenhouse postemergence trial, % visual injury. Type of data set: in vivo. As to conditions: Arylex 2.5 g ae/ha.
The test system of data set [2] is Canadian thistle (CIRAR, Cirsium arvense). Briefly: Greenhouse postemergence trial, % visual injury.
The test system of a further data set is winter wheat (TRZAW). Briefly: Greenhouse postemergence trial, crop phytotoxicity (% visual injury).
Data set [3] concerns wild pansy (Viola tricolor, VIOTR). Put plainly: Greenhouse postemergence trial, % visual injury.
In data set [4] the test system is Indian hedge mustard (Sisymbrium orientale, SSYOR). Put plainly: Greenhouse postemergence trial, % visual injury. Type of data set: in vivo.
Data set [5] has as its system turnip (Brassica rapa, BRSRR). Put plainly: Greenhouse postemergence trial, % visual injury. It is filed as in vivo.
The subject of data set [6] is spring rape (Brassica napus, BRSNN). Briefly: Greenhouse postemergence trial, % visual injury.
The test system of data set [7] is wild mustard (Sinapis arvensis, SINAR). Briefly: Greenhouse postemergence trial, % visual injury. Type of data set: in vivo.
Data set [8] concerns ivyleaf morningglory (Ipomoea hederacea, IPOHE). Put plainly: Greenhouse postemergence trial, % visual injury. As to conditions: Arylex 2.5 g ae/ha.
Another data set has as its system common rice (ORYSA). Put plainly: Greenhouse postemergence trial, crop phytotoxicity (% visual injury).
Data set [9] has as its system wild radish (Raphanus raphanistrum, RAPRA). Briefly: Greenhouse postemergence trial, % visual injury. Type of data set: in vivo.
The test system of data set [10] is black mustard (Brassica nigra, BRSNI). Briefly: Greenhouse postemergence trial, % visual injury. Type of data set: in vivo.
Data set [11] has as its system brown mustard (Brassica juncea, BRSJU). Briefly: Greenhouse postemergence trial, % visual injury. Type of data set: in vivo. As to conditions: 400 g ae/ha alone; 20-22 d.
The test system of data set [12] is Chinese kale (Brassica alboglabra, BRSAG). Put plainly: Greenhouse postemergence trial, % visual injury. Type of data set: in vivo. The note with it: 400 g ae/ha alone; 20-22 d.
Data set [13] deals with rutabaga (Brassica napus var. napobrassica, BRSNA). Briefly: Greenhouse postemergence trial, % visual injury. Type of data set: in vivo. The note with it: 400 g ae/ha alone; 20-22 d.
Data set [14] concerns velvetleaf (Abutilon theophrasti, ABUTH). Put plainly: Greenhouse postemergence trial, % visual injury. As to conditions: Abutilon theophrasti, post-emergence, ABUTH, 280 g ae/ha; read-out: % visual injury, Obs. Type of data set: in vivo.
In data set [15] the test system is kochia (KCHSC, Kochia scoparia). Put plainly: Greenhouse postemergence trial, % visual injury. As to conditions: Bassia scoparia, post-emergence, KCHSC, 280 g ae/ha; read-out: % visual injury, Obs. It is filed as in vivo. As for the experimental part: Following the protocol in Example 1, compound 1 and compound 2 were combined with 2,4 D EHE (EC) and applied to kochia (KCHSC, Kochia scoparia) and the phytotoxicity of the herbicidal compositions was measured.
Following the protocol in Example 1, compound 1 (EC) and Compound 2 (SC) were combined with diflufenzopyr and applied to kochia (Kochia scoparia, KCHSC) and the phytotoxicity of the herbicidal composition was measured.

Data set [16] concerns barnyardgrass (Echinochloa crus-galli, ECHCG). Put plainly: Greenhouse postemergence trial, % visual injury. It is filed as in vivo. As to conditions: ECHCG, 280 g ae/ha.
Data set [17] relates to nutsedge (Cyperus esculentus, CYPES). Briefly: Greenhouse postemergence trial, % visual injury. It is filed as in vivo. The note with it: CYPES, 280 g ae/ha.
The test system of data set [18] is large crabgrass (Digitaria sanguinalis, DIGSA). Put plainly: Greenhouse postemergence trial, % visual injury. Type of data set: in vivo. As to conditions: Digitaria sanguinalis, post-emergence; DIGSA, 280 g ae/ha; read-out: % visual injury, Obs.
In data set [19] the test system is common chickweed (Stellaria media, STEME). Briefly: Greenhouse postemergence trial, % visual injury. Type of data set: in vivo. As to conditions: STEME, 280 g ae/ha.

For `COC(=O)c1nc(-c2ccc(Cl)c(OC)c2F)cc(N)c1Cl` [Arylex ™], the “% visual injury (Obs)” value was found to be 0% with maize (ZEAMX) (Arylex 2.5 g ae/ha); 0% in data set [1]; 50% in [2] (Arylex 2.5 g ae/ha); 0% in the data set with winter wheat (TRZAW) (Arylex 2.5 g ae/ha); 15% in data set [3] (Arylex 2.5 g ae/ha); 20% in data set [3] (Arylex 5 g ae/ha). The “% visual injury (Obs)” value came out at 57% in [4] (Arylex 2.5 g ae/ha); 63% in data set [4] (Arylex 5 g ae/ha); 10% in data set [5] (Arylex 2.5 g ae/ha); 13% in data set [5] (Arylex 5 g ae/ha); 20% in data set [6] (Arylex 2.5 g ae/ha); 65% in [7] (Arylex 2.5 g ae/ha). Besides, the “% visual injury (Obs)” value was 78% in [7] (Arylex 5 g ae/ha); 10% in data set [8]; 0% in the data set on common rice (ORYSA) (Arylex 2.5 g ae/ha); 10% in data set [9] (Arylex 2.5 g ae/ha); 20% in [9] (Arylex 5 g ae/ha); 0% in data set [10] (Arylex 2.5 g ae/ha). The “% visual injury (Obs)” value in data set [10] (Arylex 5 g ae/ha) turned out to be 0%.
Regarding `O=C(O)COc1ccc(Cl)cc1Cl` [2,4-D choline, reference compound], the figures for the “% visual injury Obs” value in data set [11], in data set [12] and in [13] were 90%, 85% and 93%, respectively.
Turning to `CCCCOCCOC(=O)COc1nc(Cl)c(Cl)cc1Cl` [triclopyr-butotyl, reference compound], the figures for the pest or weed control at 280 g/ha in [14], in data set [15] and in data set [18] were 20%, 50% and 0%, respectively. For the same compound, the “% visual injury, Obs” value in the data set with maize (ZEAMX) (ZEAMX, 280 g ae/ha) amounted to 10%; in [2] (CIRAR, 280 g ae/ha), 85%; with winter wheat (TRZAW) (TRZAW, 280 g ae/ha), 15%; in data set [3] (VIOTR, 280 g ae/ha), 65%; in [16], 0%; in data set [17], 10%. Moreover, the “% visual injury, Obs” value in the data set with common rice (ORYSA) (ORYSA, 280 g ae/ha) is listed as 0%; in [19], 20%. The plant injury at 280 g/ha in data set [6] (Brassica napus, post-emergence, read-out: % visual injury, Obs) came out at 80%.
